Experimental data reported in article PMC6407204, “Oral administration of the cannabigerol derivative VCE-003.2 promotes subventricular zone neurogenesis and protects against mutant huntingtin-induced neurodegeneration” (Translational Neurodegeneration, 2019).

Columns and labels:
[1] = Microsomal metabolic stability; settings: human, microsomes, pH 7.4
Method: The final incubation volume was 25 μL. […] The reactions were stopped by the addition of 50 μL methanol containing internal standard at the appropriate time points. The incubation plates were centrifuged at 2500 rpm for 20 min at 4 °C to precipitate the protein. Following protein precipitation, the sample supernatants were analyzed using LC-MS/MS. From a plot of ln peak area ratio (compound peak area/internal standard peak area) against time, the gradient of the line was determined. Subsequently, half-life and intrinsic clearance was calculated using the equations below: Elimination rate constant (k) = (− gradient).

[2] = tested on: S. typhimurium TA98; experiment: AMES reverse mutation assay, TA98; assay type: cell-based; settings: TA98, S9 yes
Method: (§1) Supplementary file 40035_2019_148_MOESM4_ESM.pdf: Additional file 4: AMES Data Summary. AMES Experimental Procedure. Approximately ten million bacteria are exposed in triplicate to VCE-003-.2 (7.8, 15.6, 31.3, 62.5, 125 and 250 μg/ml), a negative control (vehicle) and a positive control for 90 min in medium containing a low concentration of histidine (sufficient for about 2 doublings). The cultures were then diluted into indicator medium lacking histidine and dispensed into 48 wells of a 384 well plate (micro-plate format, MPF). The plate was incubated for 48 h at 37 °C, and the number of wells showing growth were counted and compared to the vehicle control. An increase in the number of colonies of at least two-fold over baseline (mean + SD of the vehicle control) and a dose response indicates a positive response. […] Where indicated, S9 fraction from the livers of Aroclor 1254-treated rats was included in the incubation at a final concentration of 4.5%. An NADPH-regenerating system is also included to ensure a steady supply of reducing equivalents. The strains used in this study were S. typhimurium TA98 (hisD3052, rfa, uvrB/pKM10 for detection of frame-shift mutations) and S. typhimurium TA100 ([…], rfa, uvrB/pKM101 for detection of base-pair substitutions). VCE-003.2 was assessed for its mutagenic potential in the AMES reverse mutation assay. This test was performed in the absence and presence of S9 metabolic activation. […] The positive controls all behaved as expected. (PDF 568 kb)

[3] = tested on: S. typhimurium TA100; experiment: AMES reverse mutation assay, TA100; assay type: cell-based; settings: TA100, S9 yes
Method: as §1

[4] = tested on: murine models of HD; design: method as in PMID 25252936; settings: 3-nitropropionic acid injection model and R6/2 model, via PPARγ; cited from earlier work

SMILES	half-life [1]	microsomal CLint [1]	AMES Result [2]	AMES Result [3]	motor symptoms, neuroinflammation and neurodegeneration in HD models [4]
COc1ccc2c(c1)[C@]13CCCC[C@@H]1[C@H](C2)N(C)CC3 [Dextrom Etorphan, dextromethorphan]	58.1 min	23.9 µL/min/mg	–	–	–
Nc1cccc2cc3ccccc3cc12 [aminoanthracene, reference compound]	–	–	Positive	Positive	–
CCCCCc1cc(O)c(C/C=C(\C)CCC=C(C)C)c(O)c1 [CBG, Cannabigerol]	13.4 min	103 µL/min/mg	–	–	alleviates motor symptoms, neuroinflammation and neurodegeneration
